Assay results: patent US20230145793A1, “SUBSTITUTED PYRIMIDINE OR PYRIDINE AMINE DERIVATIVE, COMPOSITION THEREOF, AND MEDICAL USE THEREOF” (SHANGHAI HAIYAN PHARMACEUTICAL TECHNOLOGY CO., LTD., priority 2020, published 2023)
Like-named read-outs stand apart in the source and are kept apart here.

Experiments:
A2B receptor [1] = molecular target: T1, A2B receptor (Homo sapiens, UniProt P29275); test: Test 2: inhibitory activity to the A2B receptor, cAMP HTRF in CHO-K1/ADORA2B/Gα15 cells, NECA 0.1 uM; format: cell-based
T1 construct: host or cells: CHO-K1 (co-expressing Gα15)
T1 sequence (P29275 1-332): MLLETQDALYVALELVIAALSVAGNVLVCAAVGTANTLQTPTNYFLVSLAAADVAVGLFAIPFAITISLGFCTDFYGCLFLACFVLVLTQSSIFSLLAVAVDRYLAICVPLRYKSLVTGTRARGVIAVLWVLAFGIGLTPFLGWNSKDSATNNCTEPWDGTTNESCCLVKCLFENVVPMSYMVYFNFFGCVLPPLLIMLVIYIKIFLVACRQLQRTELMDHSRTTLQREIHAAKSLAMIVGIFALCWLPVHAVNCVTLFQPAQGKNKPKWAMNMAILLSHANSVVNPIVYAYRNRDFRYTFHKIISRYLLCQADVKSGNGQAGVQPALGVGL
Experimental: (§1) Test 2: Inhibitory Activities to the A2A Receptor and the A2B Receptor
(§2) Screening procedure was as follows:
(§3) 1. The cell density was adjusted with a serum-free medium to 6×10^5 cells/mL.
(§4) 3. The cells were placed still and cultured in an incubator at 37° C. for 30 min.
(§5) 4. 5 μL of cAMP-d2 and 5 μL of cAMP-ab (Cisbio, 62AM4PEB) were added in sequence.
(§6) 5. The 384-well plate was placed in dark at the room temperature for 1 h.
(§7) 6. The plate was read (Victor X5, PerkinElmer), data were analyzed by XLfit nonlinear regression, and IC50 values of the compounds were calculated.

A2A receptor [2] = molecular target: T2, A2A receptor (Homo sapiens, UniProt P29274); test: Test 2: inhibitory activity to the A2A receptor, cAMP HTRF in CHO-K1/ADORA2A/Gα15 cells, NECA 1 uM; format: cell-based
T2 construct: host or cells: CHO-K1 (co-expressing Gα15)
Experimental: as §1, §2, §3, §4, §5, §6, §7

A2B receptor [3] = molecular target: T1, A2B receptor; test: Test 1: inhibitory activity to the A2B receptor, cAMP HTRF in CHO-K1/ADORA2B/Gα15 cells, NECA 10 nM; format: cell-based
Experimental: (§8) Test 1: Inhibitory Activities to the A2A Receptor and the A2B Receptor CHO-K1/ADORA2A/Gα15 (GenScript, M00246) and CHO-K1/ADORA2B/Gα15 (GenScript, M00329) cells were cultured in a Ham's F-12 (Gibco, 31765092) medium containing 10% FBS, Zeocin (200 ug/mL), and Hygromycin B (100 ug/mL), or containing 10% FBS, G418 (400 ug/mL), and Hygromycin B (100 ug/mL) under culture conditions specified in the corresponding instruction. Screening procedure was as follows: 1. The cell density was adjusted with a serum-free medium to 6×10^5 cells/mL. 2. 5 uL of cell solution, 2.5 μL of NECA (Sigma, 119140-10MG), and 2.5 μL of compound solution were placed into each well of a 384-well plate (Greiner Bio-One, 784075) in sequence, the final concentration of NECA was 50 nM (CHO-K1/ADORA2A) or 10 nM (CHO-K1/ADORA2B), and the compound solution was subjected to 3-fold dilution from the final concentration of 3 uM. 3. The cells were placed still and cultured in an incubator at 37° C. for 30 min. 4. 5 μL of cAMP-d2 and 5 μL of cAMP-ab (Cisbio, 62AM4PEB) were added in sequence. 5. The 384-well plate was placed in dark at the room temperature for 1 h. 6. The plate was read (Victor X5, PerkinElmer), data were analyzed by XLfit nonlinear regression, and IC50 values of the compounds were calculated.

A2A receptor [4] = molecular target: T2, A2A receptor; test: Test 1: inhibitory activity to the A2A receptor, cAMP HTRF in CHO-K1/ADORA2A/Gα15 cells, NECA 50 nM; format: cell-based
Experimental: as §8

[5] = Test 3: in-vivo pharmacokinetics test in mice (plasma, LC/MS/MS); conditions: mouse, male ICR mice; for clearance: read-out: Clearance rate CLz
Experimental: Test 3: In-Vivo Pharmacokinetics Test
Mice were respectively administrated with the compound of the present disclosure by intravenous injection or intragastric administration, and the concentration of the drug in the plasma at different time points was determined by LC/MS/MS to explore pharmacokinetic behavior of the compound of the present disclosure in the mouse so as to evaluate the pharmacokinetic characteristics of the compound.
Experimental animals: healthy adult male ICR mice (weight: 25 to 40 g, 12 mice, mice in the intravenous injection group had free access to water and food, and mice in the intragastric administration group fasted overnight and had free access to water and food 4 h after administration), provided by Beijing Vital River Laboratory Animal Co., Ltd.
Administration method and dosage: before administration, animals that met the experimental requirements were selected, weighed, and marked. The ICR mice were subjected to tail vein administration (2 mg/kg, 5% DMSO, pH=4.5, 20% Captisol) or intragastric administration (10 mg/kg, 5% DMSO, pH=4.5, 20% Captisol).
Blood sample collection: before blood sample collection, each mouse was tied, and about 100 μL of blood was collected from each mouse subjected to administration at a preset blood collection time point through the jugular vein (for the mice subjected to intravenous administration: blood was collected from each mouse at a total of 9 time points, i.e., 0.083 h, 0.25 h, 0.5 h, 1 h, 2 h, 4 h, 6 h, 7.5 h, and 24 h after administration; and for the mice subjected to intragastric administration: blood was collected from each mouse at a total of 9 time points, i.e., 0.083 h, 0.25 h, 0.5 h, 1 h, 2 h, 4 h, 6 h, 7.5 h, and 24 h after administration). The blood was transferred to a test tube (1.5 mL) containing K2EDTA and centrifuged for 4 min (8,000 rpm, 4° C.) to separate out plasma, and the whole process was completed within 15 min after blood collection. All samples were stored in a refrigerator at −20° C. before sample analysis. The concentration of the drug was determined by LC/MS/MS.
Pharmacokinetic property parameters of the compounds of some examples of the present disclosure in the mice under the conditions of same dosage and intravenous administration are shown in Table 3:
Pharmacokinetic property parameters of the compounds of some examples of the present disclosure in the mice under the conditions of same dosage and intragastric administration are shown in Table 4: […]

[6] = intravenous (tail vein) 2 mg/kg, read-out: Area under the curve AUC0-t
[7] = intravenous (tail vein) 2 mg/kg
[8] = po, intragastric administration 10 mg/kg
[9] = po, intragastric administration 10 mg/kg, read-out: Area under the curve AUClast

T2 sequence (P29274 whole entry): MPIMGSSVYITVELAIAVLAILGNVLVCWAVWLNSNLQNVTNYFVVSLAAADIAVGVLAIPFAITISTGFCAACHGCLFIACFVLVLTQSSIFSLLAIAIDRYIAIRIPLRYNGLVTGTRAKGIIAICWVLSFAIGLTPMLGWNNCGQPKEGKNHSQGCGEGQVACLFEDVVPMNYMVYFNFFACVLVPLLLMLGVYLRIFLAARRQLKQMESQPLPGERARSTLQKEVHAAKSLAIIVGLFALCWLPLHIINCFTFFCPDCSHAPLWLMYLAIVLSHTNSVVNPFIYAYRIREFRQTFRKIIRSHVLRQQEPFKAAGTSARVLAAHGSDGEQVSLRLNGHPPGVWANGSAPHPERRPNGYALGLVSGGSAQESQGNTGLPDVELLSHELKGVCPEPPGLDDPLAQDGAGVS

| Compound | IC50 (A2B receptor [1]) | IC50 (A2A receptor [2]) | IC50 (A2B receptor [3]) | IC50 (A2A receptor [4]) | AUC(0-t) [5, 6] | clearance [5, 7] | Cmax [5, 8] | AUC(0-t) [5, 9] |
| --- | --- | --- | --- | --- | --- | --- | --- | --- |
| Cc1c(C#N)cccc1-c1cc(-c2cn(Cc3cccc(C(C)(C)O)n3)nn2)nc(N)n1 [Compound D1, reference compound] | 0.075 µM | 0.065 µM | – | – | – | – | – | – |
| Cc1c(C#N)cccc1-c1nc(N)c(F)c(-c2cn(Cc3cccc(C(C)(C)O)n3)nn2)n1 [Compound L-1] | 0.062 µM | 0.024 µM | 0.003 µM | 0.001 µM | – | – | – | – |
| Cc1c(C#N)cccc1-c1nc(N)c(Cl)c(-c2cn(Cc3cccc(C(C)(C)O)n3)nn2)n1 [Compound L-3] | – | – | 0.004 µM | < 0.001 µM | 3600 ng·h/mL | 9.12 mL/min/kg | 15900 ng/mL | 22200 ng·h/mL |
| Cc1c(C#N)cccc1-c1nc(N)c(Cl)c(-c2cn(Cc3ccn(C)n3)nn2)n1 [Compound L-9] | – | – | 0.001 µM | 0.001 µM | 4680 ng·h/mL | 6.97 mL/min/kg | 6790 ng/mL | 23800 ng·h/mL |
| Cc1c(C#N)cccc1-c1nc(N)c(F)c(-c2cn(Cc3ccn(CCF)n3)nn2)n1 [Compound L-38] | 0.05 µM | 0.018 µM | 0.002 µM | 0.001 µM | 2590 ng·h/mL | 12.7 mL/min/kg | 7210 ng/mL | 13300 ng·h/mL |
| Cc1c(C#N)cccc1-c1nc(N)c(F)c(-c2cn(Cc3ccn(CC(F)F)n3)nn2)n1 [Compound L-44] | 0.064 µM | 0.022 µM | 0.004 µM | 0.001 µM | – | – | – | – |
| Cc1c(C#N)cccc1-c1nc(N)c(F)c(-c2cn(Cc3ccn(C)n3)nn2)n1 [Compound L-67] | – | – | 0.007 µM | 0.003 µM | 2310 ng·h/mL | 14.2 mL/min/kg | 5720 ng/mL | 17300 ng·h/mL |
| Cc1c(C#N)cccc1-c1nc(N)c(F)c(-c2cn(Cc3ccn(C4CCOCC4)n3)nn2)n1 [Compound L-89] | 0.068 µM | 0.011 µM | 0.005 µM | < 0.001 µM | – | – | – | – |
| Cc1c(C#N)cccc1-c1nc(N)c(Cl)c(-c2cn(Cc3ccn(C4COC4)n3)nn2)n1 [Compound L-93] | – | – | 0.004 µM | < 0.001 µM | – | – | – | – |
| Cc1c(C#N)cccc1-c1nc(N)c(F)c(-c2cn(Cc3ccn(CC#N)n3)nn2)n1 [Compound L-97] | – | – | 0.005 µM | 0.006 µM | – | – | – | – |

More lines, now with the values ahead:

| IC50 (A2B receptor [1]) | IC50 (A2A receptor [2]) | IC50 (A2B receptor [3]) | IC50 (A2A receptor [4]) | AUC(0-t) [5, 6] | clearance [5, 7] | Cmax [5, 8] | AUC(0-t) [5, 9] | Compound |
| --- | --- | --- | --- | --- | --- | --- | --- | --- |
| – | – | 0.001 µM | 0.004 µM | 2740 ng·h/mL | 12.1 mL/min/kg | 12600 ng/mL | 18000 ng·h/mL | Cc1c(C#N)cccc1-c1nc(N)c(Cl)c(-c2cn(Cc3cc(C(C)(C)O)n(C)n3)nn2)n1 [Compound L-10] |
| – | – | 0.001 µM | < 0.001 µM | 2510 ng·h/mL | 13.3 mL/min/kg | 8980 ng/mL | 14800 ng·h/mL | Cc1c(C#N)cccc1-c1nc(N)c(F)c(-c2cn(Cc3ccn(C4CC4)n3)nn2)n1 [Compound L-32] |
| – | – | 0.029 µM | 0.005 µM | – | – | – | – | Cc1c(C#N)cccc1-c1nc(N)c(F)c(-c2cn(Cc3ccn(C4CCN(C)C4)n3)nn2)n1 [Compound L-90] |
| – | – | 0.005 µM | 0.011 µM | – | – | – | – | Cc1c(C#N)cccc1-c1nc(N)c(F)c(-c2cn(Cc3cc(C4CC4)n(C)n3)nn2)n1 [Compound L-92] |
| 0.038 µM | 0.016 µM | – | – | – | – | – | – | Cc1c(C#N)cccc1-c1nc(N)c(F)c(-c2cn(Cc3nc(C(C)(C)O)ccc3O)nn2)n1 [Compound L-94] |
